One data set concerns T-tropic HIV. Particulars: patients dual tropic or with only T-tropic virus; cited from earlier work.
In data set [1] the test system is HIV-1 gp160 (HXB2 strain) mediated cell/cell fusion. Put plainly: Cell/cell fusion assay (HOS hCXCR4/hCCR5/hCD4/pHIV-LTR-luciferase cells with HEK-293 cells expressing HIV-1 tat, rev, gp160), luciferase readout. Format: cell-based. The conditions noted are these: Homo sapiens, HEK293, 24 h, read-out: Fusion assay (pIC50) (converted). An excerpt: The complete coding sequences of HIV-1 tat (GenBank Accession No. X07861) and rev (GenBank Accession No. M34378) were cloned into pcDNA3.1 expression vectors containing G418 and hygromycin resistance genes, respectively. The complete coding sequence of the HIV-1 (HXB2 strain) gp160 envelope gene (nucleotide bases 6225-8795 of GenBank Accession No. K03455) was cloned into plasmid pCRII-TOPO. The three HIV genes were additionally inserted into the baculovirus shuttle vector, pFastBacMam1, under the transcriptional control of the CMV promoter. A construction of the pHIV-1 LTR containing mutated NFkB sequences linked to the luciferase reporter gene was prepared by digesting pcDNA3.1, containing the G418 resistance gene, with Nru I and Bam HI to remove the CMV promoter. LTR-luc was then cloned into the Nru I/Bam HI sites of the plasmid vector. Plasmid preparations were performed after the plasmids were amplified in Escherichia coli strain DH5-alpha. The fidelity of the inserted sequences was confirmed by double-strand nucleotide sequencing using an ABI Prism Model 377 automated sequencer.
Recombinant BacMam baculoviruses were constructed from pFastBacMam shuttle plasmids by using the bacterial cell-based Bac-to-Bac system. Viruses were propagated in Sf9 (Spodoptera frugiperda) cells cultured in Hink's TNM-FH Insect media supplemented with 10% (v/v) fetal bovine serum and 0.1% (v/v) pluronic F-68 according to established protocols.
Human osteosarcoma (HOS) cells that naturally express human CXCR4 were transfected with human CCR5, human CD4 and the pHIV-LTR-luciferase plasmid using FuGENE 6 transfection reagent. Single cells were isolated and grown under selection condition in order to generate a stable HOS (hCXCR4/hCCR5/hCD4/pHIV-LTR-luciferase) clonal cell line. The cells were maintained in Dulbeccos modified Eagles media supplemented with 10% fetal calf serum (FCS), G418 (400 ug/ml), puromycin (1 ug/ml), mycophenolic acid (40 ug/ml), xanthine (250 ug/ml) and hypoxanthine (13.5 ug/ml) to maintain a selection pressure for cells expressing the LTR-luciferase, hCCR5 and hCD4, respectively. Human embryonic kidney (HEK-293) cells stably transfected to express the human macrophage scavenging receptor (Class A, type 1; GenBank Accession No. D90187), were maintained in DMEM/F-12 media (1:1) supplemented with 10% FCS and 1.5 ug/ml puromycin. The expression of this receptor by the HEK-293 cells enhances their ability to stick to tissue culture treated plasticware.
HEK-293 cells were harvested using enzyme-free cell dissociation buffer. The cells were resuspended in DMEM/F-12 media supplemented with 10% FCS and 1.5 ug/ml and counted. Tranductions were performed by direct addition of BacMam baculovirus containing insect cell media to cells. The cells were simultaneously transduced with BacMam baculovirus expressing HIV-1 tat, HIV-1 rev and HIV-1 gp160 (from the HXB2 HIV strain). Routinely an MOI of 10 of each virus was added to the media containing the cells. 2 mM butyric acid was also added to the cells at this stage to increase protein expression in transduced cells. The cells were subsequently mixed and seeded into a flask at 30 million cells per T225. The cells were incubated at 37° C., 5% CO2, 95% humidity for 24 h to allow for protein expression.
HEK and HOS cells were harvested in DMEM/F-12 media containing 2% FCS and DMEM media containing 2% FCS, respectively, with no selection agents added. Compounds were plated as 1 ul spots in 100% DMSO on a 96-well CulturPlate plates. HOS cells (50 ul) were added first to the wells, followed immediately by the HEK cells (50 ul). The final concentration of each cell type was 20,000 cells per well. Following these additions, the cells were returned to a tissue culture incubator (37° C.; 5% CO2/95% air) for an additional 24 h.
Following the 24 h incubation, total cellular luciferase activity was measured using the LucLite Plus assay kit (Packard, Meridien, Conn.). […]

The target of a further data set is T1, CXCR4 receptor (Homo sapiens, UniProt P61073).
T1 construct: expressed in transfected cells; host or cells: HEK-293 cells (stably expressing human macrophage scavenger receptor) transduced with human CXCR4 BacMam and Gqi5 BacMam
The data set is described as follows: Functional FLIPR assay (block of SDF-1 alpha induced [Ca2+]i change). In kind it is cell-based. The conditions noted are these: HEK-293 cells, human CXCR4 BacMam and Gqi5 BacMam, read-out: Functional assay (pIC50) (converted). The procedure:
Human embryonic kidney (HEK-293) cells were maintained and harvested as described above. Cells were plated in 96-well, black clear bottom, poly-lysine coated plates at a concentration of 40,000 cells per well in a final volume of 100 ul containing human CXCR4BacMam (MOI=25) and Gqi5 BacMam (MOI=12.5). The cells were incubated at 37° C., 5% CO2, 95% humidity for 24 h to allow for protein expression.
After the required incubation time the cells were washed once with 50 ul of fresh serum-free DMEM/F12 media containing probenicid. 50 ul of dye solution was then added to the cells (Calcium Plus Assay Kit Dye; Molecular Devices) was dissolved in 200 ml of the above probenicid/BSA containing media and incubated for 1 h. Cell plates were transferred to a Fluorometric Imaging Plate Reader (FLIPR). Upon addition the effect of the compounds on the change in [Ca^2+]i was examined to determine if the compounds were agonists or antagonists (ability to block SDF-1 alpha activity) at the CXCR4 receptor. IC50 values are determined and pKb values are calculated using the Leff and Dougall equation: KB═IC50/((2+([agonist]/EC50̂b)̂1/b−1) Where IC50 is that defined by the antagonist concentration-response curve [agonist)] is the EC80 concentration of agonist used EC50 is that defined by the agonist concentration-response curve b is the slope of the agonist concentration-response curve.

Data set [2] in a line: Compound cytotoxicity in HOS cells in the absence of virus (CellTiter-Glo). Particulars: human, no virus, read-out: Cytotox (pIC50) (converted). In kind it is cell-based. The method, then:
Compounds were profiled against two HIV-1 viruses, the M-tropic (CCR5 utilizing) Ba-L strain and the T-tropic (CXCR4 utilizing) IIIB strain. Both viruses were propagated in human peripheral blood lymphocytes. Compounds were tested for there ability to block infection of the HOS cell line (expressing hCXCR4/hCCR5/hCD4/pHIV-LTR-luciferase) by either HIV-1 Ba-L or HIV-1 IIIB. Compound cytotoxicity was also examined in the absence of virus addition.
HOS cells (expressing hCXCR4/hCCR5/hCD4/pHIV-LTR-luciferase) were harvested and diluted in Dulbeccos modified Eagles media supplemented with 2% FCS and non-essential amino acid to a concentration of 60,000 cells/ml. The cells were plated into 96-well plates (100 ul per well) and the plates were placed in a tissue culture incubator (37° C.; 5% CO2/95% air) for a period of 24 h.
Subsequently, 50 ul of the desired drug solution (4 times the final concentration) was added to each well and the plates were returned to the tissue culture incubator (37° C.; 5% CO2/95% air) for 1 h. Following this incubation 50 ul of diluted virus was added to each well (approximately 2 million RLU per well of virus). The plates were returned to the tissue culture incubator (37° C.; 5% CO2/95% air) and were incubated for a further 96 h.
Following this incubation the endpoint for the virally infected cultures was quantified following addition of Steady-Glo Luciferase assay system reagent (Promega, Madison, Wis.). Cell viability or non-infected cultures was measured using a CellTiter-Glo luminescent cell viability assay system (Promega, Madison, Wis.). All luminescent readouts are performed on a Topcount luminescence detector (Packard, Meridien, Conn.).
Background: ATP-based viability assays read luminescence as a measure of living cells.

A further data set deals with HIV-1 IIIB. The data set is described as follows: HOS HIV-1 infectivity assay. In kind it is cell-based. In outline: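 HOS hCXCR4/hCCR5/hCD4/pHIV-LTR-luc cells, DMEM 2% FCS, 24 h preculture; cpd 1 h pre-virus; HIV-1 (PBL-grown) ~2 million RLU/well; 96 h, 37 °C. Readout: Steady-Glo luciferase (infected), CellTiter-Glo (no virus).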
The mark [3] stands for this setting: Human immunodeficiency virus 1, IIIB, as determined by the infectivity assay, strain not stated in Table 2, read-out: Activity Level.
Where [4] appears, read: Human immunodeficiency virus 1, T-tropic (CXCR4 utilizing) IIIB strain, HOS cells, 96 h, read-out: HOS (3B).

Where two headings read alike, the source gives them in different places.

T1 sequence (P61073 whole entry): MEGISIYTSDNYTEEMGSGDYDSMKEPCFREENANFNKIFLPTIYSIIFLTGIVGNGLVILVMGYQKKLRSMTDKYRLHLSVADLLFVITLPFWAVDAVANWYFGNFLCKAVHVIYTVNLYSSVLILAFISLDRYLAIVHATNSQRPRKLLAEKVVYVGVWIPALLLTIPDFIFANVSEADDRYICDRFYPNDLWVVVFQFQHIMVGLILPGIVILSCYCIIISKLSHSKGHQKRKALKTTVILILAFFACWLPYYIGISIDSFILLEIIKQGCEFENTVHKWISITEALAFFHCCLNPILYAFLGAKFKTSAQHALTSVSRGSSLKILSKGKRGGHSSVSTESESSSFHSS

As to `c1cc(CN2CCCNCCNCCCNCC2)ccc1CN1CCCNCCNCCCNCC1` [AMD-3100], in the data set on T-tropic HIV, the “T-tropic HIV viral load” value is “significantly reduce T-tropic HIV viral load”.
With `CN1CCCCC1CCn1c(CN(C)C2CCCc3cccnc32)nc2ccccc21` (stereo not shown) [Example 23e, N-Methyl-N-({1-[2-(1-methyl-2-piperidinyl)ethyl]-1H-benzimidazol-2-yl}methyl)-5,6,7,8-tetrahydro-8-quinolinamine], the IC50 was 38 nM in data set [1], 17.4 nM at CXCR4 receptor, less than 100 nM in the data set on HIV-1 IIIB (setting [3]) and 33 nM with HIV-1 IIIB (setting [4]). Also, the IC50 at 96 h in data set [2] was greater than 100 µM.
For `CN(C)C/C=C\Cn1c(CN(C)C2CCCc3cccnc32)nc2ccccc21` (stereo not shown) [Example 24, N-({1-[(2Z)-4-(Dimethylamino)-2-buten-1-yl]-1H-benzimidazol-2-yl}methyl)-N-methyl-5,6,7,8-tetrahydro-8-quinolinamine], in that order: 20.4 nM, 15.5 nM, less than 100 nM, 25 nM and greater than 100 µM.
For `CN1CCOC(Cn2c(CN(C)C3CCCc4cccnc43)nc3ccccc32)C1` (stereo not shown) [Example 25, N-Methyl-N-({1-[(4-methyl-2-morpholinyl)methyl]-1H-benzimidazol-2-yl}methyl)-5,6,7,8-tetrahydro-8-quinolinamine], the IC50 in data set [1] was 38 nM; on CXCR4 receptor, 29.5 nM; with HIV-1 IIIB (setting [3]) it was 100 to 500 nM; in the data set with HIV-1 IIIB (setting [4]) it was 185 nM. Also, the IC50 at 96 h in data set [2] was greater than 100 µM.

The record behind these values is patent publication US20080096861A1, “Chemical Compounds” (SMITHKLINE BEECHAM CORPORATION, priority 2004, published 2008).
